This passage reports IC50 and selectivity ratio results from ChEMBL document CHEMBL1155951 (Bioorg Med Chem Lett, 2008).

For series [1], the system named is Plasmodium falciparum. Description: Antiplasmodial activity against chloroquine-sensitive Plasmodium falciparum F32 after 48 hrs by [3H]hypoxanthine uptake. It is filed as functional, organism-based.
The test system of series [2] is Plasmodium falciparum. The series is described as follows: Antiplasmodial activity against chloroquine-resistant Plasmodium falciparum W2 after 48 hrs by [3H]hypoxanthine uptake. It is filed as functional, organism-based.
Series [3] relates to Plasmodium falciparum. Description: Antiplasmodial activity against chloroquine-resistant Plasmodium falciparum FcM29 after 48 hrs by [3H]hypoxanthine uptake. The class given is functional, organism-based.
For series [4], the system named is Plasmodium falciparum. The series is described as follows: Antiplasmodial activity against chloroquine-resistant Plasmodium falciparum FcB1 after 48 hrs by [3H]hypoxanthine uptake. The class given is functional, organism-based. The note with it: FcB1/Columbia.
Series [5] relates to Vero. Description: Cytotoxicity against african green monkey Vero cells assessed as [3H]hypoxanthine incorporation after 48 hrs. It is filed as cell-based. The note with it: Chlorocebus sabaeus.
Series [6] relates to Plasmodium falciparum. The series is described as follows: Antiplasmodial activity against chloroquine-resistant Plasmodium falciparum W2 gametocytes after 48 hrs by microscopy. The class given is functional, organism-based. The note with it: W2, 48 h.
A short description of series [7]: Selectivity index, ratio of IC50 for african green monkey (Cercopithecus aethiops) Vero cells to IC50 for chloroquine-sensitive Plasmodium falciparum F32. It is filed as toxicity, cell-based. The note with it: read-out: Ratio IC50.
The nature of series [8]: Selectivity index, ratio of IC50 for african green monkey (Cercopithecus aethiops) Vero cells to IC50 for chloroquine-resistant Plasmodium falciparum W2. The note with it: read-out: Ratio IC50. It is filed as toxicity, cell-based.
The nature of series [9]: Selectivity index, ratio of IC50 for african green monkey (Cercopithecus aethiops) Vero cells to IC50 for chloroquine-resistant Plasmodium falciparum FcM29. The note with it: read-out: Ratio IC50. It is filed as toxicity, cell-based.
Series [10] can be described thus: Selectivity index, ratio of IC50 for african green monkey (Cercopithecus aethiops) Vero cells to IC50 for chloroquine-resistant Plasmodium falciparum FcB1. It is filed as toxicity, cell-based. The note with it: read-out: Ratio IC50.

For orientation: IC50 means the concentration needed to halve the response being measured.

Turning to `COc1cc2cccnc2c2nc(C)c3ccoc3c12`, the half-maximal inhibitory concentration (IC50) in series [1] turned out to be 0.86 µM; in [2], 0.93 µM; in series [3], 0.48 µM; in [4], 0.93 µM; in series [5], 62.2 µM; in series [6] it was 3.75 µM. The selectivity ratio is 72 in series [7], 66 in [8], 129 in series [9] and 39 in series [10].

In the case of `COc1cc2cccnc2c2nc(C)c3cc[nH]c3c12`, the half-inhibitory concentration (IC50) came out at 0.41 µM in series [1]; 1.28 µM in [2]; 1.28 µM in series [3]; 0.22 µM in [4]; 29.8 µM in series [5]; 9.8 µM in series [6]. In addition, the selectivity ratio is 72 in [7], 23 in series [8], 23 in [9] and 132 in series [10].

With `Cc1nc2c(ccc3cccnc32)c2[nH]ccc12`, the IC50 in [1] was 1.31 µM; in series [2], 4.17 µM; in [3], 9.36 µM; in [4], 1.14 µM; in series [5] it was 61.6 µM; in series [6], 10.6 µM. Moreover, the selectivity ratio in [7] amounted to 47; in series [8] it was 15; in series [9], 7; in [10] it was 54.

For `Cc1nc2c(ccc3cccnc32)c2occc12`, the IC50 was 1.18 µM in series [1]; 1.1 µM in series [2]; 0.38 µM in series [3]; 0.97 µM in series [4]; 37.6 µM in series [5]; 5.5 µM in series [6]. The selectivity ratio was determined as 32 in [7], 34 in [8], 99 in series [9] and 39 in [10].

For `COc1cc2cccnc2c2nc(C)c(CCCl)c(Cl)c12`, the concentration for half-maximal inhibition (IC50) turned out to be 7.71 µM in series [1], 6.56 µM in [2], 5 µM in series [3] and 4.84 µM in [4].

Consider `COc1cc(NC(C)CCCN)c2ncccc2c1` (stereo not given) [PRIMAQUINE], for which the IC50 in series [5] amounted to 340 µM.
